Assay results taken from patent US7521461B2, “Benzoic acid derivatives as modulators of PPAR alpha and gamma” (AstraZeneca AB, priority 2002, dated 2009).

What was measured:
human PPAR alpha = target: T1, human PPAR alpha (Homo sapiens, UniProt Q07869); experiment: GAL4-PPAR ligand binding domain luciferase reporter transactivation assay in transiently transfected U2-OS cells; assay type: cell-based; settings: concentration giving 50% of the maximal activation obtained by the reference compound (ETYA), about 24 hours exposure
T1 construct: expressed in transfected cells; host or cells: U2-OS (human osteogenic sarcoma), transient transfection by electroporation with a pSG5-based expression vector
T1 sequence (Q07869 239-466 limits assumed): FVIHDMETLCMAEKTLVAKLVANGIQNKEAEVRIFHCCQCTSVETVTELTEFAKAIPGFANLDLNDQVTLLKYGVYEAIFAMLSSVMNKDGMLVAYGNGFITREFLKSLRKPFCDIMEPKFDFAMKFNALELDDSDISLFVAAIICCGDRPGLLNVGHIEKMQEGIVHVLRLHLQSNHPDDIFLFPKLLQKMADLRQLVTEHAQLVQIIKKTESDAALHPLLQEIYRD
Description: (§1) Compounds were dissolved in DMSO to obtain 16 mM stock solutions. Before assays, stock solutions were further diluted in DMSO and culture media
(§2) U2-OS, (Osteogenic sarcoma, Human) was purchased from ATCC, USA. Cells were expanded and refrozen in batches from passage number six. Cells were cultured in Dulbecco's modified Eagle medium (DMEM) with 25 mM glucose, 2 mM glutamine or 4 mM L-alanyl-L-glutamine, 10% fetal calf serum, at 5% CO2. Phosphate buffered saline (PBS) without addition of calcium or magnesium was used. All cell culture reagents were from Gibco (USA) and 96-well cell culture plates were purchased from Wallach.
(§3) Standard recombinant DNA techniques were carried out as described by Ausubel (7). The Luciferase reporter vector, pGL5UAS (clone consists of five copies of the GAL4 DNA binding sequence, 5′-[…]-3′, cloned into the SacI/XhoI sites of pGL3-Promoter (Promega). The SacI/XhoI fragment carrying the UAS sites was constructed using annealed overlapping oligonucleotides.
(§4) Expression vectors used are based upon pSG5 (Stratagene). All vectors contain an EcoRI/NheI fragment encoding the DNA binding domain of GALA (encoding amino acid positions 1-145 of database accession number P04386) followed by an in-frame fusion to a fragment encoding the nuclear localisation sequence from T antigen of Polyoma Virus. […]

mouse PPAR gamma = target: T2, mouse PPAR gamma (Mus musculus, UniProt P37238); experiment: as above; assay type: cell-based; settings: concentration giving 50% of the maximal activation obtained by the reference compound (pioglitazone), about 24 hours exposure
T2 construct: expressed in transfected cells; host or cells: U2-OS (human osteogenic sarcoma), transient transfection by electroporation with a pSG5-based expression vector
T2 sequence (P37238 238-503 limits assumed): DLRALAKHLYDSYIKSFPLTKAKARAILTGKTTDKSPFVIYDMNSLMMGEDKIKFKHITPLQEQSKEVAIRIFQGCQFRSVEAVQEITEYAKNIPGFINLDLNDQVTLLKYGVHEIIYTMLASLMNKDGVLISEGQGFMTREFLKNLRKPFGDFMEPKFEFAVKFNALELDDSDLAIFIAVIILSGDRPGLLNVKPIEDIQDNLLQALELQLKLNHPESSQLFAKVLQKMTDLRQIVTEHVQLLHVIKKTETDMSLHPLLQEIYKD
Description: as §1, §2, §3, §4

EC50 (human PPAR alpha): 2.96 µM
EC50 (mouse PPAR gamma): 3.05 µM
SMILES: O=C(Cc1ccc(OCc2ccccc2C(=O)O)cc1)NCc1ccc(C(F)(F)F)cc1 [Example 2, 2-{[4-(2-Oxo-2-{[4-(trifluoromethyl)benzyl]amino}ethyl)phenoxy]methyl}benzoic acid]
